In patent US10619138B2, “Herbicide-resistant hydroxyphenylpyruvate dioxygenases” (BASF SE, priority 2013, dated 2020):

Experiments:
[1] = test system: transgenic Arabidopsis plants expressing Algoriphagus HPPD; assay: Greenhouse herbicide spray test, transgenic plants (T2); assay type: in vivo, Arabidopsis thaliana; details: two weeks after treatment
Text: (§1) Additionally, T1 and T2 transgenic Arabidopsis plants can be tested for improved tolerance to HPPD-inhibiting herbicides in greenhouse studies. Herbicide injury scoring is done 2-3 weeks after treatment and is rated on a scale of 0 to 100%, 0% being no injury and 100% being complete death.
(§2) Transgenic Arabidopsis plants were sprayed with a range of doses from 1.56-50 g/ha with HPPD-inhibiting herbicides and injury evaluations were taken two weeks after treatment. […] As depicted in Table 6, control plants are severely injured by all doses of herbicide applied, with at least 70% of leaf material being damaged at the lowest application rate. For example, transgenic plants expressing Scenedesmus HPPD have an excellent tolerance to all herbidcides tested. […] After application of Inhibitor 2, only 18% of leaf material was damaged resulting in a 5-fold tolerance compared to the WT at the highest application rate.

[2] = test system: transgenic Arabidopsis plants expressing Acidobacterium HPPD; assay: as above; assay type: in vivo, Arabidopsis thaliana; details: for Injury evaluation, scale 0-100% / tolerance of transgenic plants (in words): two weeks after treatment; for tolerance of transgenic plants (in words): doses 1.56-50 g/ha
Text: as §1, §2

[3] = test system: transgenic Arabidopsis plants expressing Scenedesmus HPPD; assay: as above; assay type: in vivo, Arabidopsis thaliana; details: for Injury evaluation, scale 0-100% / tolerance of transgenic plants (in words): two weeks after treatment; for tolerance of transgenic plants (in words): doses 1.56-50 g/ha
Text: as §1, §2

[4] = test system: untransformed wild-type (WT) Arabidopsis plants; assay: Greenhouse herbicide spray test, wild-type plants; assay type: in vivo, Arabidopsis thaliana; details: two weeks after treatment, mean of three plants
Text: as §1, §2

[5] = test system: Mucilaginibacter HPPD (SEQ ID NO: 28); assay: In vitro HPPD activity assay, tolerance index; assay type: biochemical, Mucilaginibacter paludis; details: normalized on Arabidopsis wild-type HPPD
Description: (§3) The activity assay for HPPD is based on the analysis of homogentisic acid by reversed phase HPLC.
(§4) The assay mixture can contain 150 mM potassium phosphate buffer pH 7.0, 50 mM L-ascorbic acid, 100 μM Catalase (Sigma-Aldrich), 1 μM FeSO4 and 0.2 units of purified HPPD enzyme in a total volume of 505 μl. 1 unit is defined as the amount of enzyme that is required to produce 1 nmol of HGA per minute at 20° C.
(§5) The reaction is allowed to proceed for 45 min at room temperature. The reaction is stopped by the addition of 50 μl of 4.5 M phosphoric acid. The sample is filtered using a […] pore size PVDF filtration device.
(§6) 5 μl of the cleared sample is analyzed on an UPLC HSS T3 column (particle size 1.8 μm, dimensions 2.1×50 mm; Waters) by isocratic elution using 90% 20 mM NaH2PO4 pH 2.2, 10% methanol (v/v).
(§7) HGA is detected electrochemically at 750 mV (mode: DC; polarity: positive) and quantified by integrating peak areas (Empower software; Waters).
(§8) Inhibitors are dissolved in DMSO (dimethylsulfoxide) to a concentration of 0.5 mM. From this stock solution serial five-fold dilutions are prepared in DMSO, which are used in the assay. The respective inhibitor solution accounts for 1% of the assay volume. Thus, final inhibitor concentrations range from 5 μM to 320 pM, respectively. Activities are normalized by setting the uninhibited enzyme activity to 100%. IC50 values are calculated using non-linear regression.
(§9) Using methods which are described in the above examples or well known in the art, purified, recombinant wildtype HPPD enzymes are characterized with respect to their kinetic properties and sensitivity towards HPPD inhibiting herbicides. Apparent michaelis constants (Km) and maximal reaction velocities (Vmax) are calculated by non-linear regression with the software GraphPad Prism 5 (GraphPad Software, La Jolla, USA) using a substrate inhibition model. […] Weighted means (by standard error) of Km and IC50 values are calculated from at least three independent experiments. The Cheng-Prusoff equation for competitive inhibition (Cheng, Y. C.; Prusoff, W. H. Biochem Pharmacol 1973, 22, 3099-3108) is used to calculate dissociation constants (Ki).
(§10) Field performance of the HPPD enzyme, which is used as a herbicide tolerance trait may depend not only on its lack of sensitivity towards HPPD inhibiting herbicides but also on its activity. To assess the potential performance of a herbicide tolerance trait a tolerance index (TI) is calculated using the following formula: […]
(§11) Easy comparison and ranking of each trait is enabled by normalizing tolerance indexes on Arabidopsis wild-type HPPD.

[6] = biological target: T1, Arabidopsis HPPD (SEQ ID NO: 42) (Arabidopsis thaliana, UniProt P93836); assay: In vitro HPPD activity assay (HGA by HPLC), wildtype enzyme characterization; assay type: biochemical; details: for TI (normalized tolerance index): normalized on Arabidopsis wild-type HPPD, reference enzyme
T1 construct: Arabidopsis (42); His tag; made in house; host or cells: E. coli BL21 (DE3)
T1 sequence (P93836 1-445): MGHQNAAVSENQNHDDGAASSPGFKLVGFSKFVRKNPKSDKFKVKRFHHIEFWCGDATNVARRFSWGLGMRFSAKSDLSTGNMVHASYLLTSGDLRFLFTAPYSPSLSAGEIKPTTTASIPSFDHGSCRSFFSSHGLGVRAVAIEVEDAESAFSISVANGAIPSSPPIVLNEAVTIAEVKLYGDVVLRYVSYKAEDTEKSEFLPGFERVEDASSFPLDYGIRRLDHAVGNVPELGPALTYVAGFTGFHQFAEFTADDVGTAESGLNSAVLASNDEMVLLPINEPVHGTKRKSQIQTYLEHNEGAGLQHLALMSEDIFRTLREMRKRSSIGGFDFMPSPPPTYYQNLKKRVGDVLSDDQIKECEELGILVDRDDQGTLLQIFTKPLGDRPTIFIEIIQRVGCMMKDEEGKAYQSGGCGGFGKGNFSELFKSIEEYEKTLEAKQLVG
Description: as §3, §4, §5, §6, §7
as §8, with “Thus, final inhibitor concentrations range from 5 μM to 320 pM, respectively.” left out
as §9, with “experiments.” for “experiments. The Cheng-Prusoff equation for competitive inhibition (Cheng, Y. C.; Prusoff, W. H. Biochem Pharmacol 1973, 22, 3099-3108) is used to calculate dissociation constants (Ki).”
as §10, §11

[7] = Algoriphagus HPPD Event 1, 3.125 g/ha
[8] = Algoriphagus HPPD Event 1, 6.25 g/ha
[9] = Algoriphagus HPPD Event 2, 3.125 g/ha
[10] = Algoriphagus HPPD Event 2, 6.25 g/ha
[11] = Acidobacterium HPPD Event 1, 3.125 g/ha
[12] = Acidobacterium HPPD Event 1, 6.25 g/ha
[13] = Acidobacterium HPPD Event 2, 3.125 g/ha
[14] = Acidobacterium HPPD Event 2, 6.25 g/ha
[15] = Scenedesmus HPPD Event 1, 3.125 g/ha
[16] = Scenedesmus HPPD Event 1, 6.25 g/ha
[17] = Scenedesmus HPPD Event 2, 3.125 g/ha
[18] = Scenedesmus HPPD Event 2, 6.25 g/ha
[19] = Algoriphagus HPPD Event 1, 12.5 g/ha
[20] = Algoriphagus HPPD Event 2, 12.5 g/ha
[21] = Acidobacterium HPPD Event 1, 12.5 g/ha
[22] = Acidobacterium HPPD Event 2, 12.5 g/ha
[23] = Scenedesmus HPPD Event 1, 12.5 g/ha
[24] = Scenedesmus HPPD Event 2, 12.5 g/ha

## CS(=O)(=O)c1ccc(C(=O)C2C(=O)CCCC2=O)c([N+](=O)[O-])c1 [Inhibitor 2, 2-(4-methylsulfonyl-2-nitro-benzoyl)cyclohexane-1,3-dione]
[1]; Algoriphagus HPPD Event 1, 1.56 g/ha
  Injury evaluation, scale 0-100%: 48%
[1]; [7]
  Injury evaluation, scale 0-100%: 53%
[1]; [8]
  Injury evaluation, scale 0-100%: 65%
[1]; Algoriphagus HPPD Event 2, 1.56 g/ha
  Injury evaluation, scale 0-100%: 45%
[1]; [9]
  Injury evaluation, scale 0-100%: 60%
[1]; [10]
  Injury evaluation, scale 0-100%: 75%
[2]; Acidobacterium HPPD Event 1, 1.56 g/ha
  Injury evaluation, scale 0-100%: 8%
[2]; [11]
  Injury evaluation, scale 0-100%: 8%
[2]; [12]
  Injury evaluation, scale 0-100%: 45%
[2]; Acidobacterium HPPD Event 2, 1.56 g/ha
  Injury evaluation, scale 0-100%: 10%
[2]; [13]
  Injury evaluation, scale 0-100%: 33%
[2]; [14]
  Injury evaluation, scale 0-100%: 55%
[2]; at the lowest application rate, both events
  leaf damage: 8-10%
[2]
  tolerance of transgenic plants (in words): significantly increased tolerance
[3]; Scenedesmus HPPD Event 1, 1.56 g/ha
  Injury evaluation, scale 0-100%: 10%
[3]; [15]
  Injury evaluation, scale 0-100%: 13%
[3]; [16]
  Injury evaluation, scale 0-100%: 18%
[3]; Scenedesmus HPPD Event 2, 1.56 g/ha
  Injury evaluation, scale 0-100%: 23%
[3]; [17]
  Injury evaluation, scale 0-100%: 38%
[3]; [18]
  Injury evaluation, scale 0-100%: 38%
[3]; at the highest application rate
  tolerance compared to the WT: 5 fold
[3]
  tolerance of transgenic plants (in words): outstanding tolerance
[4]; 1.56 g/ha
  Injury evaluation, scale 0-100%: 83%
[4]; 3.125 g/ha
  Injury evaluation, scale 0-100%: 93%
[4]; 6.25 g/ha
  Injury evaluation, scale 0-100%: 93%
[5]
  TI (normalized tolerance index): 0.6
[6]
  TI (normalized tolerance index): 1

## CN(c1c(Cl)ccc(C2=C(O)c3ncccc3C(C)(C)S2(=O)=O)c1Cl)S(C)(=O)=O [Inhibitor 4, N-[2,6-dichloro-3-(8-hydroxy-5,5-dimethyl-6,6-dioxo-thiopyrano[4,3-b]pyridin-7-yl)phenyl]-N-methyl-methanesulfonamide]
[1]; [19]
  Injury evaluation, scale 0-100%: 40%
[1]; Algoriphagus HPPD Event 1, 25 g/ha
  Injury evaluation, scale 0-100%: 45%
[1]; Algoriphagus HPPD Event 1, 50 g/ha
  Injury evaluation, scale 0-100%: 50%
[1]; [20]
  Injury evaluation, scale 0-100%: 33%
[1]; Algoriphagus HPPD Event 2, 25 g/ha
  Injury evaluation, scale 0-100%: 33%
[1]; Algoriphagus HPPD Event 2, 50 g/ha
  Injury evaluation, scale 0-100%: 60%
[2]; [21]
  Injury evaluation, scale 0-100%: 20%
[2]; Acidobacterium HPPD Event 1, 25 g/ha
  Injury evaluation, scale 0-100%: 25%
[2]; Acidobacterium HPPD Event 1, 50 g/ha
  Injury evaluation, scale 0-100%: 35%
[2]; [22]
  Injury evaluation, scale 0-100%: 23%
[2]; Acidobacterium HPPD Event 2, 25 g/ha
  Injury evaluation, scale 0-100%: 25%
[2]; Acidobacterium HPPD Event 2, 50 g/ha
  Injury evaluation, scale 0-100%: 60%
[2]; after application of 12.5 g/ha, both events
  leaf material harmed: 20-23%
[2]
  tolerance of transgenic plants (in words): not severly injured
[3]; [23]
  Injury evaluation, scale 0-100%: 13%
[3]; Scenedesmus HPPD Event 1, 25 g/ha
  Injury evaluation, scale 0-100%: 18%
[3]; Scenedesmus HPPD Event 1, 50 g/ha
  Injury evaluation, scale 0-100%: 65%
[3]; [24]
  Injury evaluation, scale 0-100%: 20%
[3]; Scenedesmus HPPD Event 2, 25 g/ha
  Injury evaluation, scale 0-100%: 25%
[3]; Scenedesmus HPPD Event 2, 50 g/ha
  Injury evaluation, scale 0-100%: 25%
[3]
  tolerance of transgenic plants (in words): outstanding tolerance
[4]; 12.5 g/ha
  Injury evaluation, scale 0-100%: 75%
[4]; 25 g/ha
  Injury evaluation, scale 0-100%: 83%
[4]; 50 g/ha
  Injury evaluation, scale 0-100%: 85%
[5]
  TI (normalized tolerance index): 13.5
[6]
  Ki: 29 nM
  TI (normalized tolerance index): 1
[6]; not normalized
  TI (tolerance index): 23.8E−3

## CSc1c(Cl)cc(F)c(C(=O)Nc2nnnn2C)c1Cl [Inhibitor 11, 2,4-dichloro-6-fluoro-3-methylsulfanyl-N-(1-methyltetrazol-5-yl)benzamide]
[1]; [7]
  Injury evaluation, scale 0-100%: 55%
[1]; [8]
  Injury evaluation, scale 0-100%: 73%
[1]; [19]
  Injury evaluation, scale 0-100%: 98%
[1]; [9]
  Injury evaluation, scale 0-100%: 68%
[1]; [10]
  Injury evaluation, scale 0-100%: 90%
[1]; [20]
  Injury evaluation, scale 0-100%: 97%
[2]; [11]
  Injury evaluation, scale 0-100%: 53%
[2]; [12]
  Injury evaluation, scale 0-100%: 65%
[2]; [21]
  Injury evaluation, scale 0-100%: 98%
[2]; [13]
  Injury evaluation, scale 0-100%: 58%
[2]; [14]
  Injury evaluation, scale 0-100%: 93%
[2]; [22]
  Injury evaluation, scale 0-100%: 98%
[3]; [15]
  Injury evaluation, scale 0-100%: 13%
[3]; [16]
  Injury evaluation, scale 0-100%: 15%
[3]; [23]
  Injury evaluation, scale 0-100%: 33%
[3]; [17]
  Injury evaluation, scale 0-100%: 13%
[3]; [18]
  Injury evaluation, scale 0-100%: 13%
[3]; [24]
  Injury evaluation, scale 0-100%: 15%
[3]
  tolerance of transgenic plants (in words): outstanding tolerance
[4]; 3.125 g/ha
  Injury evaluation, scale 0-100%: 70%
[4]; 12.5 g/ha
  Injury evaluation, scale 0-100%: 83%
[5]
  TI (normalized tolerance index): 0.2
[6]
  TI (normalized tolerance index): 1
